Measurements published in patent US8722731B2, “Furanyl compounds and the use thereof” (NovoMedix, LLC, priority 2010, dated 2014).

What was measured:
RT-4 = assay: IC50 cell-based assay, adherent cells, RT-4; details: Homo sapiens, Bladder, papilloma, 72 hours, read-out: IC50 of Compounds in Adherent Cell Types
Protocol: (§1) In one embodiment, the IC50s of the compounds provided herein were determined in cell-based assays using adherent cells. In one embodiment, the activity of the compounds provided herein were determined in a cell-based assay using the triple negative breast cancer cell line MDA-MB-468. In one embodiment, the adherent cells used in the cell-based assays may be a cell type selected from Table 1. In one embodiment, the cell-based assay may be carried out as provided herein. On day 0, cells were seeded at 20,000 cells per well in 100 µL of media into individual wells of a 96-well tissue culture plate. The next day, compounds were diluted to twice the desired final concentration and added in 100 µL of media for a final volume of 200 μL. Standard solutions for each compound were prepared at 1000× concentration in DMSO. The highest concentration was 30 mM. Serial 1:1 dilutions were made from there for a 6- or 9-point curve (e.g., 30 mM, 15 mM, 7.5 mM, etc). Compounds were then diluted 1:500 in media, and 100 µL of the resulting solution was added to each well for a final dilution of 1:1000. Each concentration of compound was tested in triplicate. Cells were incubated at 37° C. with 5% CO2. After 72 hours, 20 μL of CellTiter 96 Aqueous One Solution Cell Proliferation Assay (Promega) was added to each well. Cells were placed back in the incubator, and the absorbance at 490 nm was read after 2-3 hours. The concentration of compound that decreased the number of metabolically active cells by 50% was determined and reported as the IC50. “Percent Viability” was determined by subtracting the average background value (media only) and expressed as a ratio to the average value obtained from cells treated with only DMSO.

MDA-MB-415 = assay: IC50 cell-based assay, adherent cells, MDA-MB-415; details: Homo sapiens, Breast, adenocarcinoma, 72 hours, read-out: IC50 of Compounds in Adherent Cell Types
Protocol: (§2) In one embodiment, the IC50s of the compounds provided herein were determined in cell-based assays using adherent cells. In one embodiment, the activity of the compounds provided herein were determined in a cell-based assay using the triple negative breast cancer cell line MDA-MB-468. In one embodiment, the adherent cells used in the cell-based assays may be a cell type selected from Table 1. In one embodiment, the cell-based assay may be carried out as provided herein. On day 0, cells were seeded at 20,000 cells per well in 100 µL of media into individual wells of a 96-well tissue culture plate. The next day, compounds were diluted to twice the desired final concentration and added in 100 µL of media for a final volume of 200 μL. Standard solutions for each compound were prepared at 1000× concentration in DMSO. The highest concentration was 30 mM. Serial 1:1 dilutions were made from there for a 6- or 9-point curve (e.g., 30 mM, 15 mM, 7.5 mM, etc). Compounds were then diluted 1:500 in media, and 100 µL of the resulting solution was added to each well for a final dilution of 1:1000. […] Cells were placed back in the incubator, and the absorbance at 490 nm was read after 2-3 hours. […] “Percent Viability” was determined by subtracting the average background value (media only) and expressed as a ratio to the average value obtained from cells treated with only DMSO.

MDA-MB-435 = assay: IC50 cell-based assay, adherent cells, MDA-MB-435; details: Homo sapiens, Breast, carcinoma—ductal, 72 hours, read-out: IC50 of Compounds in Adherent Cell Types
Protocol: as §2

1937 = assay: IC50 cell-based assay, adherent cells, 1937; details: Breast, triple neg, 72 hours, read-out: IC50 of Compounds in Adherent Cell Types
Protocol: as §1

HEK-293 = assay: IC50 cell-based assay, adherent cells, HEK-293; details: Homo sapiens, HEK293, Kidney, embryonic, 72 hours, read-out: IC50 of Compounds in Adherent Cell Types
Protocol: as §2

Mia PaCa-2 = assay: IC50 cell-based assay, adherent cells, Mia PaCa-2; details: Homo sapiens, Pancreas, carcinoma, 72 hours, read-out: IC50 of Compounds in Adherent Cell Types
Protocol: as §2

BxPc-3 = assay: IC50 cell-based assay, adherent cells, BxPc-3; details: Homo sapiens, Pancreas, adenocarcinoma, 72 hours, read-out: IC50 of Compounds in Adherent Cell Types
Protocol: as §2

MS1 = assay: IC50 cell-based assay, adherent cells, MS1; details: Mus musculus, MS-1, Pancreas, angiosarcoma, 72 hours, read-out: IC50 of Compounds in Adherent Cell Types
Protocol: as §2

XPA-1 = assay: IC50 cell-based assay, adherent cells, XPA-1; details: Pancreas, 72 hours, read-out: IC50 of Compounds in Adherent Cell Types
Protocol: as §2

Du145 = assay: IC50 cell-based assay, adherent cells, Du145; details: Homo sapiens, DU-145, Prostate, carcinoma, 72 hours, read-out: IC50 of Compounds in Adherent Cell Types
Protocol: as §2

Molt-4 = assay: IC50 cell-based assay, suspension cells, Molt-4; details: Homo sapiens, Leukemia, ALL, read-out: IC50 of Compounds in Suspension Cell Types
Protocol: (§3) In one embodiment, the IC50s of the compounds provided herein were determined in cell-based assays using adherent cells. In one embodiment, the activity of the compounds provided herein were determined in a cell-based assay using the triple negative breast cancer cell line MDA-MB-468. In one embodiment, the adherent cells used in the cell-based assays may be a cell type selected from Table 1. In one embodiment, the cell-based assay may be carried out as provided herein. On day 0, cells were seeded at 20,000 cells per well in 100 µL of media into individual wells of a 96-well tissue culture plate. The next day, compounds were diluted to twice the desired final concentration and added in 100 µL of media for a final volume of 200 μL. […] Cells were placed back in the incubator, and the absorbance at 490 nm was read after 2-3 hours. […] “Percent Viability” was determined by subtracting the average background value (media only) and expressed as a ratio to the average value obtained from cells treated with only DMSO.
(§4) In one embodiment, the IC50s of the compounds provided herein were determined in cell-based assays using suspension cells. In one embodiment, the activity of the compounds provided herein were determined in a cell-based assay using the JeKo-1 cell line (mantle cell lymphoma) or the Pfeiffer cell line (diffuse large B-cell lymphoma). […]

K562 = assay: IC50 cell-based assay, suspension cells, K562; details: Homo sapiens, Leukemia, CML, read-out: IC50 of Compounds in Suspension Cell Types
Protocol: as §3, §4

SEMK = assay: IC50 cell-based assay, suspension cells, SEMK; details: Leukemia, read-out: IC50 of Compounds in Suspension Cell Types
Protocol: as §3, §4

Z138, JeKo-1 = assay: IC50 cell-based assay, suspension cells, Z138, JeKo-1; details: Lymphoma, Mantle cell, read-out: IC50 of Compounds in Suspension Cell Types
Protocol: as §1
In one embodiment, the IC50s of the compounds provided herein were determined in cell-based assays using suspension cells. In one embodiment, the activity of the compounds provided herein were determined in a cell-based assay using the JeKo-1 cell line (mantle cell lymphoma) or the Pfeiffer cell line (diffuse large B-cell lymphoma). In one embodiment, the suspension cells used in the cell-based assays may be a cell type selected from Table 2. Assays with suspension cells were similar except that 40,000-60,000 cells were added to each well and compounds were added immediately after cell plating.

Row | Structure (SMILES) | IC50 (RT-4) | IC50 (MDA-MB-415) | IC50 (MDA-MB-435) | IC50 1937 | IC50 (HEK-293) | IC50 (Mia PaCa-2) | IC50 (BxPc-3) | IC50 (MS1) | IC50 (XPA-1) | IC50 (Du145) | IC50 (Molt-4) | IC50 (K562) | IC50 (SEMK) | IC50 (Z138, JeKo-1)
1 | O=C(Nc1cc(C(F)(F)F)cc(C(F)(F)F)c1)c1cc(-c2ccccc2)oc1C(F)(F)F [Compound 1, 5-Phenyl-2-trifluoromethyl-furan-3-carboxylic acid (3,5-bis-trifluoromethyl-phenyl)-amide] | 10 to 20 µM | < 5 µM | < 5 µM | < 5 µM | < 5 µM | < 5 µM | 5 to 10 µM | < 5 µM | 5 to 10 µM | 5 to 10 µM | < 5 µM | < 5 µM | < 5 µM | < 5 µM
2 | O=C(Nc1cc(C(F)(F)F)cc(C(F)(F)F)c1)c1cc(-c2ccc(Cl)cc2)oc1C(F)(F)F [Compound 2, 5-(4-Chlorophenyl)-N-(3,5-bistrifluoromethylphenyl)-2-trifluoromethylfuran-3-carboxamide] | > 20 µM |  |  | < 5 µM |  |  |  |  |  |  |  |  |  | < 5 µM
